Tests used:
keratinocytes (HaCaT) [1] = test: Safety, MTT test in keratinocytes; type: cell-based; settings: 48 hours
Experimental: (§1) In order to test the safety of the compounds, both normal human cells were used: keratinocytes (HaCaT), fibroblasts (BJ), primary melanocytes that occur in the skin, as well as human cancer cells: the hepatocarcinoma line HepG2 and the neuroblastoma line SH-SY5Y, which are considered a model for the assessment of hepatocytotoxicity and neurocytotoxicity. The concentrations of the tested compounds in the range of […] were used in the studies. The cell lines used in the research were purchased from the American Type Culture Collection (ATCC) and were cultured in media recommended by the manufacturer with the addition of FBS and antibiotics in an incubator ensuring appropriate culture conditions, i.e. humidity, temperature and CO2 concentration. Cells were seeded into multiwell plates and incubated with the test compounds for 48 hours. After this time, MTT and LDH tests were performed to assess cell viability. The MTT test is based on the ability to transform the substrate: [3-(4,5-dimethyl-2-thiazolyl)-2,5-diphenyl-2H-tetrazolium bromide into a colored product only by living cells. The absorbance at 570 nm, which corresponds to the absorption maximum for the product, is directly proportional to cell viability. The LDH test is based on testing the activity of the enzyme lactate dehydrogenase in the culture medium, which is released from cells as a result of damage to the cell membrane, e.g. as a result of cell death. Triton X-100 was used as a positive control in the test. The determination is colorimetric, the substrate is transformed by the released enzyme into a colored product, an increase in absorbance indicates a larger amount of the released enzyme, and thus confirms greater damage to cell membranes. Tables 7 and 8 present the results obtained, which correspond to the viability of cells incubated with the compounds in relation to the viability of cells constituting a control sample, i.e. incubated with the solvent (DMSO) at the same concentration as in the case of the groups tested in the MTT test or in relation to the results obtained for the Triton X-100 positive control in the LDH test. They indicate that the compounds are safe at the concentrations tested.

keratinocytes (HaCaT) [2] = test: Safety, LDH test in keratinocytes; type: cell-based; settings: 48 hours, vs Triton X-100
Experimental: as §1

fibroblasts (BJ) = test: Safety, MTT test in fibroblasts; type: cell-based; settings: 48 hours
Experimental: as §1

primary melanocytes = test: Safety, LDH test in primary melanocytes; type: cell-based; settings: 48 hours, vs Triton X-100
Experimental: as §1

hepatocarcinoma HepG2 = test: Safety, MTT test in HepG2; type: cell-based; settings: 48 hours
Experimental: as §1

neuroblastoma SH-SY5Y = test: Safety, LDH test in SH-SY5Y; type: cell-based; settings: 48 hours, vs Triton X-100
Experimental: as §1

S. typhimurium TA98 = test: Ames microplate test, TA98; type: cell-based, Salmonella typhimurium; settings: without S9
Experimental: (§2) Bacteria were grown overnight in growth medium.

S. typhimurium TA100 = test: Ames microplate test, TA100; type: cell-based, Salmonella typhimurium; settings: without S9
S. typhimurium TA1537 = test: Ames microplate test, TA1537; type: cell-based, Salmonella typhimurium; settings: without S9
Experimental: as §2

CHO-K1 cells = test: Cytotoxicity (MTT) in CHO-K1 cells before the micronucleus test; type: cell-based, Chinese hamster; settings: 24 hours
Method in brief: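 CHO-K1 cells were grown in F-12K with 10% FBS at 37° C and incubated with compounds for 24 h, as a screen to set safe concentrations for the micronucleus test. Viability was read by MTT against a control given DMSO at the same concentration.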

E. coli WP2 = test: Ames microplate test, E. coli WP2; settings: without S9;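 also: bacteria exposed to compound for 90 min at 37 °C in 24-well plates, then transferred with indicator medium to 384-well plates and incubated 48 h before yellow well counting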

Cc1ccc(/C=C/C(=O)NCCCCCO)cc1 [H-415/21, (2E)-N-(5-hydroxypentyl)-3-(4-methylphenyl)prop-2-enamide]
MTT, Keratinocytes (HaCaT) (keratinocytes (HaCaT) [1]; 100 μM): 101.11 ± 2.03 % of solvent control
MTT, Keratinocytes (HaCaT) (keratinocytes (HaCaT) [1]; 150 μM): 101.78 ± 2.32 % of solvent control
MTT, Keratinocytes (HaCaT) (keratinocytes (HaCaT) [1]; 200 μM): 100.88 ± 1.40 % of solvent control
MTT, Keratinocytes (HaCaT) (keratinocytes (HaCaT) [1]; 250 μM): 88.54 ± 3.74 % of solvent control
LDH, Keratinocytes (HaCaT) (keratinocytes (HaCaT) [2]; 100 μM): 2.95 percentage of positive control
LDH, Keratinocytes (HaCaT) (keratinocytes (HaCaT) [2]; 150 μM): 6.70 percentage of positive control
LDH, Keratinocytes (HaCaT) (keratinocytes (HaCaT) [2]; 200 μM): 10.18 percentage of positive control
LDH, Keratinocytes (HaCaT) (keratinocytes (HaCaT) [2]; 250 μM): 18.19 percentage of positive control
MTT, Fibroblasts (BJ) (fibroblasts (BJ); 100 μM): 102.12 ± 2.71 % of solvent control
MTT, Fibroblasts (BJ) (fibroblasts (BJ); 150 μM): 101.92 ± 2.88 % of solvent control
MTT, Fibroblasts (BJ) (fibroblasts (BJ); 200 μM): 96.13 ± 3.64 % of solvent control
MTT, Fibroblasts (BJ) (fibroblasts (BJ); 250 μM): 92.86 ± 4.30 % of solvent control
LDH, Primary melanocytes (primary melanocytes; 100 μM): 4.22 percentage of positive control
LDH, Primary melanocytes (primary melanocytes; 150 μM): 6.01 percentage of positive control
LDH, Primary melanocytes (primary melanocytes; 200 μM): 8.34 percentage of positive control
LDH, Primary melanocytes (primary melanocytes; 250 μM): 14.94 percentage of positive control
MTT, Hepatocarcinoma HepG2 (hepatocarcinoma HepG2; 100 μM): 100.32 ± 1.75 % of solvent control
MTT, Hepatocarcinoma HepG2 (hepatocarcinoma HepG2; 150 μM): 99.54 ± 5.74 % of solvent control
MTT, Hepatocarcinoma HepG2 (hepatocarcinoma HepG2; 200 μM): 100.53 ± 3.98 % of solvent control
MTT, Hepatocarcinoma HepG2 (hepatocarcinoma HepG2; 250 μM): 98.90 ± 4.21 % of solvent control
LDH, Neuroblastoma SH-SY5Y (neuroblastoma SH-SY5Y; 100 μM): 3.90 percentage of positive control
LDH, Neuroblastoma SH-SY5Y (neuroblastoma SH-SY5Y; 150 μM): 7.24 percentage of positive control
LDH, Neuroblastoma SH-SY5Y (neuroblastoma SH-SY5Y; 200 μM): 8.92 percentage of positive control
LDH, Neuroblastoma SH-SY5Y (neuroblastoma SH-SY5Y; 250 μM): 10.55 percentage of positive control
Increase in the number of yellow wells compared to the reference level, TA98 (S. typhimurium TA98; 0.5 mM): 0.47
Increase in the number of yellow wells compared to the reference level, TA98 (S. typhimurium TA98; 1.0 mM): 0.24
Increase in the number of yellow wells compared to the reference level, TA98 (S. typhimurium TA98; 2.0 mM): 0.35
Increase in the number of yellow wells compared to the reference level, TA100 (S. typhimurium TA100; 0.5 mM): 0.92
Increase in the number of yellow wells compared to the reference level, TA100 (S. typhimurium TA100; 1.0 mM): 0.58
Increase in the number of yellow wells compared to the reference level, TA100 (S. typhimurium TA100; 2.0 mM): 0.75
Increase in the number of yellow wells compared to the reference level, TA1537 (S. typhimurium TA1537; 0.5 mM): 0.33
Increase in the number of yellow wells compared to the reference level, TA1537 (S. typhimurium TA1537; 1.0 mM): 0.33
Increase in the number of yellow wells compared to the reference level, TA1537 (S. typhimurium TA1537; 2.0 mM): 0.00
% Viability [mean], CHO-K1 (CHO-K1 cells; 100 μM): 102.2%
% Viability [mean], CHO-K1 (CHO-K1 cells; 150 μM): 102.8%
% Viability [mean], CHO-K1 (CHO-K1 cells; 200 μM): 87.2%
Increase in the number of yellow wells compared to the reference level, E. coli WP2 (E. coli WP2; 0.5 mM): 0.64
Increase in the number of yellow wells compared to the reference level, E. coli WP2 (E. coli WP2; 1.0 mM): 0.40
Increase in the number of yellow wells compared to the reference level, E. coli WP2 (E. coli WP2; 2.0 mM): 0.95

From US20250263376A1, “(E)-N-CINNAMOYLAMINOALKANOLS WITH MELANOGENESIS INHIBITORY ACTIVITY” (Uniwersytet Jagiellonski, priority 2024, published 2025)
